How the values were obtained:
Assay in all cases: relative viability (nuclei count vs DMSO), 5 days (fraction); higher = more cells survive
Motesanib + Bortezomib = compound: CC1(C)CNc2cc(NC(=O)c3cccnc3NCc3ccncc3)ccc21 [Motesanib] + CC(C)C[C@H](NC(=O)[C@H](Cc1ccccc1)NC(=O)c1cnccn1)B(O)O [Bortezomib] (partner 0.002 µM)
Procedure, shortened: (§1)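 Lung cancer cell lines were seeded in 1536-well plates and dosed by pin tool the next day, with either a single drug or a fixed anchor-drug dose combined with five library-drug doses (not always all listed) spaced in √10 steps. Five days later, one step fixed the cells and stained their nuclei (final 0.05% Triton X-100, 1% formaldehyde, 1 ug/ml Hoechst), and nuclei were counted on 4× images. Relative viability is the nuclei count in treated wells divided by the count in vehicle wells, and each value is the median of duplicate plates.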

[1] = compound: C[C@@]1(C(=O)Nc2ccc(F)nc2)CCCN1c1nc(Nc2cc(C3CC3)n[nH]2)c2cccn2n1 + CC(=O)Nc1cccc(-n2c(=O)n(C3CC3)c(=O)c3c(Nc4ccc(I)cc4F)n(C)c(=O)c(C)c32)c1 [Trametinib] (partner 0.02 µM)
Procedure, shortened: as §1

Motesanib + Dasatinib = compound: CC1(C)CNc2cc(NC(=O)c3cccnc3NCc3ccncc3)ccc21 [Motesanib] + Cc1nc(Nc2ncc(C(=O)Nc3c(C)cccc3Cl)s2)cc(N2CCN(CCO)CC2)n1 [Dasatinib] (partner 0.075 µM)
Procedure, shortened: as §1

[2] = compound: C[C@@]1(C(=O)Nc2ccc(F)nc2)CCCN1c1nc(Nc2cc(C3CC3)n[nH]2)c2cccn2n1 + COc1cc2c(Oc3ccc(NC(=O)C4(C(=O)Nc5ccc(F)cc5)CC4)cc3F)ccnc2cc1OCCCN1CCOCC1 [Foretinib] (partner 0.25 µM)
Procedure, shortened: as §1

Cell Line	relative viability (Motesanib + Bortezomib; first compound 0.01 µM)	relative viability (Motesanib + Bortezomib; first compound 0.03162 µM)	relative viability (Motesanib + Bortezomib; first compound 0.1 µM)	relative viability (Motesanib + Bortezomib; first compound 0.3162 µM)	relative viability (Motesanib + Bortezomib; first compound 1 µM)	relative viability ([1]; first compound 0.04 µM)	relative viability ([1]; first compound 0.1265 µM)	relative viability ([1]; first compound 0.4 µM)	relative viability ([1]; first compound 1.265 µM)	relative viability (Motesanib + Dasatinib; first compound 0.01 µM)	relative viability (Motesanib + Dasatinib; first compound 0.03162 µM)	relative viability (Motesanib + Dasatinib; first compound 0.1 µM)	relative viability (Motesanib + Dasatinib; first compound 0.3162 µM)	relative viability (Motesanib + Dasatinib; first compound 1 µM)	relative viability ([2]; first compound 0.04 µM)	relative viability ([2]; first compound 0.1265 µM)	relative viability ([2]; first compound 0.4 µM)	relative viability ([2]; first compound 1.265 µM)
NCI-H1975	0.378	0.406	0.326	0.391	0.369	0.272	0.273	0.313	0.234	0.363	0.328	0.397	0.324	0.312	0.861	0.962	0.88	0.716
CAL-12T			0.906	1.16	0.926	0.333	0.214	0.351	0.253	0.414	0.339	0.479	0.522	0.546	1.15	1.06	0.897	0.4
NCI-H1623										0.481	0.567	0.562	0.556	0.538	0.658	0.82	0.57	0.672
HCC-44	0.905	0.877	0.994	0.974	0.885	0.879	0.871	0.717	1.02									
EKVX	1.1	1.19	1.04	1.14	1.06	0.433	0.227	0.355	0.288	0.592	0.462	0.527	0.654	0.505	0.684	0.751	0.602	0.253
NCI-H1651	0.914	0.883	0.932	0.873	0.929	0.723	0.798	0.712	0.757	0.408	0.339	0.384	0.451	0.432	0.775	0.704	0.621	0.895
NCI-H1944						0.352	0.363	0.284	0.384	0.205	0.215	0.25	0.225	0.231	0.764	0.676	0.496	0.649
NCI-H1703	0.25	0.264	0.228	0.192	0.265										0.294	0.303	0.309	0.273
Calu-6	0.896	1.04	0.926	1.05	0.889										0.959	0.871	0.758	0.414
EBC-1	0.637	0.56	0.557	0.537	0.559										0.114	0.0828	0.0953	0.11
SW 1573	1.17	1.02	1.09	1.03	0.928	0.496	0.389	0.368	0.412	0.53	0.447	0.593	0.552	0.673	0.744	0.826	0.494	0.659
A-427	1.03	0.956	0.973	0.969	1.05	0.644	0.548	0.537	0.579	0.606	0.724	0.663	0.721	0.81	1.19	0.988	0.785	1.15
NCI-H2347	1.08	0.574	1.08	0.799	1.05	0.251	0.289	0.256	0.248	0.299	0.302	0.344	0.3	0.305	1.32	0.818	1.02	0.834
NCI-H1355	1.2	1.33	1.22	1.35	1.18	0.36	0.302	0.289	0.346	0.74	0.548	0.717	0.732	0.684	0.929	0.87	0.701	1
NCI-H358						0.129	0.106	0.112	0.101	0.14	0.155	0.133	0.2	0.158	0.471	0.385	0.202	0.183
PC-3 [JPC-3]	0.921	0.802	0.879	0.922	0.968	0.628	0.441	0.513	0.603	0.845	0.989	0.974	1.04	0.974	1.08	1.02	0.959	1.34
NCI-H2228	0.957	1.13	0.881	1.28	1.01	0.485	0.287	0.276	0.302	0.497	0.49	0.549	0.495	0.502	0.719	0.686	0.491	0.537
HOP-62	0.862	0.791	0.735	0.802	0.907	0.406	0.303	0.313	0.397	0.658	0.6	0.715	0.692	0.757	1.14	1.11	1.02	1.16
HARA	1.06	1.19	1.21	1.11	1.11	0.66	0.331	0.483	0.618	0.225	0.2	0.215	0.303	0.3	0.802	0.78	0.652	1.01
NCI-H838	0.887	0.957	0.758	0.965	0.891	0.496	0.46	0.346	0.36	0.301	0.274	0.333	0.307	0.391	1.08	0.819	0.631	0.887
NCI-H1755	0.927	0.957	1.06	0.988	1.02	0.661	0.692	0.734	0.744	0.381	0.426	0.463	0.48	0.466	0.914	0.729	0.85	0.89

From the supplement of paper PMC10307832
